Measured values reported in patent US20240350542A1, “ANTICANCER T CELL THERAPY PRODUCT-ASSISTING COMPOSITION COMPRISING DEPLETING ANTI-CD4 MONOCLONAL ANTIBODY AND USE THEREOF” (NATIONAL CANCER CENTER, priority 2018, published 2024).
Where two headings read alike, the source gives them in different places.

Tests used:
[1] = system: B16-F10 melanoma cancer cells
Experimental: (§1) Specifically, 2×10^5 B16-F10 melanoma cancer cells were subcutaneously injected into the dorsal area of a C57BL/6 mouse to induce the formation of cancer tissue. At the same time, aPmel-1 was prepared in the same manner as in Example 1. aPmel-1 and IL-2 were administered in the same manner as in Example 1, and transient immunodeficiency was induced by intraperitoneally injecting 150, 200 and 300 mg/kg of cyclophosphamide (CTX) two days before the aPmel-1 administration. In addition, to confirm a period of maintaining transient immunodeficiency according to the dose of CTX, 150, 200 and 300 mg/kg of CTX was intraperitoneally injected into C57BL/6 mice once, and an inguinal lymph node and the spleen of the mice were collected, followed by single cell suspension and then counting a cell number.

[2] = system: inguinal lymph node and spleen cell number
Experimental: as §1

For `O=P1(N(CCCl)CCCl)NCCCO1` (stereo not drawn) [CTX, cyclophosphamide], the “toxicity to the mouse” value ([1]; 300 mg/kg or more of CTX) was “can be toxic to the mouse, leading to the death of the mouse”, the survival of mouse ([1]; C57BL/6, 150 mg/kg CTX only) was “up to 35 days” and the “growth of cancer tissue” value ([1]; C57BL/6, 150 mg/kg CTX only, vs NT) was “cancer tissue grew more slowly”. The “growth of cancer tissue” value ([1]; C57BL/6, 200 mg/kg CTX only) was “slower growth of cancer tissue than the 150 mg/kg CTX-administered mouse”, the survival of mouse ([1]; C57BL/6, 200 mg/kg CTX only) was “up to 45 days” and the “growth of cancer tissue” value ([1]; C57BL/6, 300 mg/kg CTX only) was “slower growth of cancer tissue than when 200 mg/kg CTX-administered mouse”. The survival of mouse ([1]; C57BL/6, 300 mg/kg CTX only) was “up to 60 days”, the transient immunodeficiency effect ([2]; C57BL/6, 150 mg/kg CTX) was “insignificant” and the “period the immunodeficiency effect was maintained” value ([2]; C57BL/6, 200 mg/kg CTX intraperitoneally once) was “approximately 2 weeks”.
